Like-named read-outs stand apart in the source and are kept apart here. Each block holds one molecule with its values, some of them ahead of it. Non-standard residues stand in square brackets, D forms with d. Residues, ends and D or L forms follow the SMILES beside them. pS = N[C@@H](COP(=O)(O)O)C(=O)O
How the values were obtained:
[1] = test system: 14-3-3σ/MDM2_159-173^pS166 peptide; assay: FP, FC-A effect on 14-3-3σ/MDM2 159-173 pS166; assay type: binding; settings: 1.0 mM FC-A, 10 nM FITC-labeled MDM2_159-173^pS166; accurate fit not obtained
From the text: (§1) . Red arrows highlight peaks for the ternary complex.

14-3-3 PPIs = settings: cited from earlier work
From the text: To investigate the feasibility of this, the effect of fusicoccin A (FC-A) on the PPI was studied using FP, ITC, and native MS.

14-3-3σ/MDM2 complex = assay: native mass spectrometry, ternary complex with FC-A; assay type: binding; settings: for relative abundance of ternary complex 14-3-3σ + MDM2 + FC-A (native MS): pH 6.8, SD, n = 3
Experimental: as §1
14-3-3 σ was buffer exchanged into 100 mM ammonium acetate pH 6.8 using a 30 kDa molecular weight cut-off Amicon Ultra centrifugal filter (Merck Millipore) and stored at −80 °C prior to use. […] . All native MS experiments were performed on an Orbitrap Eclipse Tribrid mass spectrometer (Thermo Fisher Scientific, Bremen) coupled to a nanoelectrospray source that used gold-coated borosilicate glass capillaries, pulled in-house. Positive ionization mode was used throughout with the capillary voltage set to 1.2 kV. The source temperature was set at 275 °C, in-source dissociation at 25, S-lens RF at 100. High pressure mode was used and a mass range of 2000 to 8000 m/z used to monitor the binding equilibria. Mass spectra were acquired using a maximum ion injection time of 50 ms. The automatic gain control was set to 1 x 10^6 and the ions detected in the Orbitrap with resolution set to 7500. All data was analyzed using XCalibur (v.4.1). All proteins and protein complexes were identified based on their theoretical mass.
Analytical grade ammonium acetate and LC-MS grade Dimethyl Sulfoxide (DMSO) were purchased from Fisher Scientific. 14-3-3 σ was buffer exchanged into 100 mM ammonium acetate pH 6.8 using a 30 kDa molecular weight cut-off Amicon Ultra centrifugal filter (Merck Millipore) and stored at -80 °C prior to use. The lyophilised MDM2161-191^pS166/pS186 31mer peptide (see Table S4) was diluted into 100mM ammonium acetate pH 6.8. […] . To quantify each complex, the relative abundance of the complexes observed was assumed to reflect their abundance in solution. Due to overlapping peaks, 15+ ions were excluded from analysis. […] . Standard deviations of the abundance of each complex were calculated from 3 replicates.

14-3-3ζ = target: T1, 14-3-3ζ (Homo sapiens, UniProt P63104); assay: fluorescence polarization (FP), direct binding to 14-3-3ζ
T1 sequence (P63104 1-245): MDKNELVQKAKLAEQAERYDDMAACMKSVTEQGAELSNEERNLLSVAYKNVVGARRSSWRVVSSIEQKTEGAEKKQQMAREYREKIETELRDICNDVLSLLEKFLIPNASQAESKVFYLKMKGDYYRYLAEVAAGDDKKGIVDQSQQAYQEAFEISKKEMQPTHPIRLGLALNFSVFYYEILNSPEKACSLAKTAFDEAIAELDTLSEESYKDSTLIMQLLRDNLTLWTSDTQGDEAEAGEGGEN
Experimental: (§2) For all experiments, a fixed concentration of 10 nM fluorescently labeled peptide (FITC) was used. […] All data was analyzed using GraphPad Prism 7 and sigmoidal curves were fitted using the following equation: Y=Bottom + (Top-Bottom)/(1+10ˆ((Log app.Kd-X)∗HillSlope)), where Y = mP value; X = log 14-3-3 concentration; top and bottom = plateaus in mP.
(§3) Both proteins were prepared via the following procedure:
(§4) For all experiments a fixed concentration of 10 nM fluorescently labelled peptide (FITC) was used. […] All data was analysed using GraphPad Prism 7 and sigmoidal curves were fitted using the following equation:

14-3-3σ = target: T2, 14-3-3σ (Homo sapiens, UniProt P31947); assay: fluorescence polarization (FP), direct binding to 14-3-3σ; settings: for binding to 14-3-3σ by FP (in words) / maximum polarization level (in words): FITC-labeled peptide 10 nM; for binding to 14-3-3σ by FP (in words): pH 7.5; for maximum polarization level (in words): 14-3-3σ titration
T2 sequence (P31947 1-248): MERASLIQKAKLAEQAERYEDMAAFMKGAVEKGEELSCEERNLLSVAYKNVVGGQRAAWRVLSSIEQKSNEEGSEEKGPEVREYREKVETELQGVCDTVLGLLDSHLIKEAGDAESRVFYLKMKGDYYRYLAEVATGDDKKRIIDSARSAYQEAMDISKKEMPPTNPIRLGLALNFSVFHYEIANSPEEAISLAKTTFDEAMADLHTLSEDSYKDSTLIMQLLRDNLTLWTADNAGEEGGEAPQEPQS
Experimental: as §2, §3, §4

[2] = target: 14-3-3σ/MDM2_179-193^pS186 peptide (Homo sapiens, UniProt P31947+Q00987); assay: biochemical
Experimental: as §2

14-3-3σ and 14-3-3ζ = assay: ITC, mono-phosphorylated MDM2 peptides; assay type: binding; settings: N-acetylated peptide 1.0 mM into 14-3-3 100 µM, 25 °C, pH 7.5, Malvern MicroCal ITC200

Molecule: C=CC(C)(C)OC[C@H]1O[C@H](O[C@@H]2C3=C([C@H](C)COC(C)=O)C[C@H](O)[C@]3(C)/C=C3/[C@@H](COC)CC[C@H]3[C@@H](C)[C@H]2O)[C@H](O)[C@@H](OC(C)=O)[C@@H]1O [FC-A, fusicoccin A]
- effect of FC-A on binding (FP, in words) [1]: small effect
- stabilization of di-phosphorylated mode I/II motif peptides, e.g. CFTR (in words) (14-3-3 PPIs; ref [27]): shown to stabilize peptides containing mode I/II type di-phosphorylated binding motifs
- stabilization of mode III 14-3-3 PPIs (in words) (14-3-3 PPIs; ref [43]): predominantly stabilizes mode III 14-3-3 PPIs
- relative abundance of ternary complex 14-3-3σ + MDM2 + FC-A (native MS) (14-3-3σ/MDM2 complex; 14-3-3σ 5 μM : MDM2 10 μM : FC-A 5 μM): 6 ± 3%
- relative abundance of ternary complex 14-3-3σ + MDM2 + FC-A (native MS) (14-3-3σ/MDM2 complex; 14-3-3σ 5 μM : MDM2 10 μM : FC-A 25 μM): 15 ± 5%
- composition of ternary complex (native MS, in words) (14-3-3σ/MDM2 complex; 14-3-3σ 5 μM, MDM2 peptide 10 μM, FC-A 5 or 25 μM): a 14-3-3 dimer, a single MDM2 di-phosphorylated peptide, and a single FC-A molecule

- Kd (14-3-3ζ): 11.4 ± 5.4 µM
- Kd (14-3-3σ): 26.2 ± 17.9 µM
- Kd (14-3-3σ; Kd (FP), duplicate data, duplicate data set (Fig. S1A), 14-3-3σ titrated to 10 nM FITC-labelled peptide, pH 7.5, room temperature, SD, n=3): 22.3 ± 21.5 µM
- Kd [2]: 24.6 ± 12 µM
Molecule: CC[C@H](C)[C@H](NC(=O)[C@H](CO)NC(=O)[C@H](CC(=O)O)NC(=O)[C@H](COP(=O)(O)O)NC(=O)[C@H](CCCCN)NC(=O)[C@H](Cc1c[nH]cn1)NC(=O)[C@H](CCCNC(=N)N)NC(=O)[C@H](CCCCN)NC(=O)[C@H](CCCNC(=N)N)NC(=O)[C@H](CCC(N)=O)NC(=O)[C@H](CCCNC(=N)N)NC(C)=O)C(=O)N[C@@H](CO)C(=O)N[C@@H](CC(C)C)C(=O)N[C@@H](CO)C(=O)N[C@@H](Cc1ccccc1)C(N)=O [MDM2_179-193^pS186] (Ac-RQRKRHK[pS]DSISLSF-NH2)

- binding by ITC (in words) (14-3-3σ and 14-3-3ζ): could not be detected
Molecule: AcHN-^159SSRRRAI(pS)ETEENSD^173-NH2 (Ac-SSRRRAI[pS]ETEENSD-NH2; SMILES CC[C@H](C)[C@H](NC(=O)[C@H](C)NC(=O)[C@H](CCCNC(=N)N)NC(=O)[C@H](CCCNC(=N)N)NC(=O)[C@H](CCCNC(=N)N)NC(=O)[C@H](CO)NC(=O)[C@H](CO)NC(C)=O)C(=O)N[C@@H](COP(=O)(O)O)C(=O)N[C@@H](CCC(=O)O)C(=O)N[C@H](C(=O)N[C@@H](CCC(=O)O)C(=O)N[C@@H](CCC(=O)O)C(=O)N[C@@H](CC(N)=O)C(=O)N[C@@H](CO)C(=O)N[C@@H](CC(=O)O)C(N)=O)[C@@H](C)O; UniProt Q00987 159-173, looked up, fragment) [MDM2_159-173^pS166]
- binding to 14-3-3ζ by FP (in words) (14-3-3ζ; FITC-labeled peptide 10 nM, pH 7.5): bound weakly to 14-3-3ζ, and no effective Kd value could be obtained
- binding to 14-3-3σ by FP (in words) (14-3-3σ): bound weakly to 14-3-3σ and saturation was not observed

Molecule: FITC-Ahx-^159SSRRRAI(pS)ETEENSDELSGERQRKRHKSDSISLSF^193-NH2 (SSRRRAISETEENSDELSGERQRKRHKSDSISLSF; phosphoSer166; FITC label; UniProt Q00987 159-193, looked up, fragment) [MDM2_159-193^pS166]
- maximum polarization level (in words) (14-3-3σ): small increase in the maximum polarization value
- binding to 14-3-3σ by FP (in words) (14-3-3σ): saturation was not observed and an effective Kd value could not be obtained

Molecule: FITC-Ahx-^159SSRRRAISETEENSDELSGERQRKRHK(pS)DSISLSF^193-NH2 (SSRRRAISETEENSDELSGERQRKRHKSDSISLSF; phosphoSer186; FITC label; UniProt Q00987 159-193, looked up, fragment) [MDM2_159-193^pS186]
- maximum polarization level (in words) (14-3-3σ): comparable to that observed for the di-phosphorylated MDM2_161-191^pS166/pS186 peptide
- binding to 14-3-3σ by FP (in words) (14-3-3σ): much weaker affinity than the 15 amino acid MDM2_179-193^pS186 peptide

Source: article PMC10864208, “Characterizing the protein–protein interaction between MDM2 and 14-3-3σ; proof of concept for small molecule stabilization” (The Journal of Biological Chemistry, 2024)
